This is an account of results in BindingDB's records for doi:10.1074/jbc.M003490200 (University of Virginia, 2000).

This assay deals with T1, Leukotriene B4 receptor 2 (Homo sapiens, UniProt Q9NPC1).
T1 sequence (Q9NPC1 whole entry): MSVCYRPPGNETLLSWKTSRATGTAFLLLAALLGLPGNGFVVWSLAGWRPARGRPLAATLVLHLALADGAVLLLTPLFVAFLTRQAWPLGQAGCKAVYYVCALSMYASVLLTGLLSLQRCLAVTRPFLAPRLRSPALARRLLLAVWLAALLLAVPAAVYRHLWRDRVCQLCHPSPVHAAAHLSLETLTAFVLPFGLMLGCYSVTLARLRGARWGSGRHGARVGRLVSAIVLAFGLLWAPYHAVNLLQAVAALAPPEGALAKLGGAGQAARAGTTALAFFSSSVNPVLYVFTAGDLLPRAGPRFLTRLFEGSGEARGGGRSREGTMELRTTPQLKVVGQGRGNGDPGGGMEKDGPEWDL
One may read the Ki as the equilibrium dissociation constant of an inhibitor or competing ligand from its target. Read a low Ki as tighter binding. Regarding `CC(C)(O)c1ccccc1CCC(S)c1cccc(C=Cc2ccc3ccc(Cl)cc3n2)c1` (stereo unspecified) [NSC_5311297], the Ki is greater than 10000 nM.
The value for `CCCCC/C=C\C\C=C/C=C/C=C/[C@@H](SC[C@H](N)C(=O)NCC(=O)O)[C@@H](O)CCCC(=O)O` [5S-hydroxy-6R-(S-cysteinylglycinyl)-7E,9E,11E,14Z-eicosatetraenoic acid] was 3.48 nM; that for `CCCCCC=CCC=CC=CC=CC(SCC(NC(=O)CCC(N)C(=O)O)C(=O)NCC(=O)O)C(O)CCCC(=O)O` (stereo unspecified) [CAS_5283121] was 3.35 nM; that for `COc1cc(C(=O)NS(=O)(=O)c2ccccc2C)ccc1Cc1cn(C)c2ccc(NC(=O)OC3CCCC3)cc12` [cyclopentyl 3-(2-methoxy-4-((o-tolylsulfonyl)carbamoyl)benzyl)-1-methylindole-5-carbamate] was 7400 nM.
Next, `CCCCC/C=C\C\C=C/C=C/C=C/[C@@H](SC[C@H](N)C(=O)O)[C@@H](O)CCCC(=O)O` [(5S-(5R*,6S*(S*),7E,9E,11Z,14Z))-6-((2-Amino-2-carboxyethyl)thio)-5-hydroxy-7,9,11,14-eicosatetraenoic acid]: 693 nM; `O=C(Nc1ccc2c(=O)cc(-c3nnn[nH]3)oc2c1)c1ccc(OCCCCc2ccccc2)cc1` [CAS_103177-37-3]: 3620 nM.
